Assay [1] concerns HT-29. The experiment in a line: Antiproliferative activity against human HT-29 cells measured after 72 hrs by MTT assay. It is filed as functional, cell-based. The settings on record: HT-29, 72 h. Background: Tetrazolium assays rely on reduction of a dye to a coloured formazan, in cell work by metabolically active cells.
Assay [2] deals with MCF7. Briefly: cells. The conditions noted are these: Homo sapiens, MCF7, 72 h.
Description: Antiproliferative activity against human MCF7 cells measured after 72 hrs by MTT assay
In assay [3] the test system is HCT-116. The experiment in a line: Antiproliferative activity against human HCT-116 cells measured after 72 hrs by MTT assay. The conditions noted are these: HCT-116, 72 h. It is filed as functional, cell-based.
The subject of assay [4] is K562. The experiment in a line: cells. The settings on record: Homo sapiens, K562, 72 h.
Description: Antiproliferative activity against human K562 cells measured after 72 hrs by MTT assay

As to `CCCN1CC(=O)N2[C@H](c3cc(OC)c(OC)c(OC)c3)c3cc4c(cc3C[C@H]2C1=O)OCCO4`, the IC50 in assay [1], in assay [2], in assay [3] and in assay [4] was over 5000 nM in each case.
Consider `COc1cc([C@@H]2c3cc4c(cc3C[C@H]3COC(=O)N32)OCO4)cc2c1OCO2`, for which the concentration for half-maximal inhibition (IC50) (in general, the concentration that inhibits the measured activity by half) in assay [1] stood at 212 nM; in assay [2], 149 nM; in assay [3], 56.6 nM; in assay [4] it was 72.3 nM.
As for `COc1c(Br)cc([C@H]2c3cc4c(cc3C[C@H]3C(=O)NC(=O)N23)OCCO4)cc1Br`, the IC50 in assay [1], in assay [2], in assay [3] and in assay [4] was over 5000 nM in each case.
Regarding `COc1cc([C@@H]2c3cc4c(cc3C[C@H]3COC(=O)N32)OCO4)ccn1`, the IC50 in assay [1], in assay [2], in assay [3] and in assay [4] was over 5000 nM in each case.
Consider `COc1cc([C@@H]2c3cc4c(cc3C[C@H]3COC(=O)N32)OCCO4)ccc1F`, for which the IC50 in assay [1] turned out to be 63.4 nM; in assay [2], 376 nM; in assay [3] it was 273 nM; in assay [4], 154 nM.
As for `CCN1C(=O)[C@@H]2Cc3cc4c(cc3[C@@H](c3cc(OC)c(OC)c(OC)c3)N2C1=O)OCCO4`, the IC50 in assay [1], in assay [2], in assay [3] and in assay [4] was over 5000 nM each time.
In the case of `CCN1C(=O)[C@@H]2Cc3cc4c(cc3[C@@H](c3cc(OC)c(OC)c(OC)c3)N2C1=S)OCO4`, the IC50 in assay [1], in assay [2], in assay [3] and in assay [4] was over 5000 nM each time.
Regarding `COc1cc([C@@H]2c3cc4c(cc3C[C@H]3COC(=O)N32)OCCO4)cc(F)c1OC`, the IC50 in assay [1] was 18.2 nM; in assay [2], 11.4 nM; in assay [3], 10.1 nM; in assay [4], 13.4 nM.
Turning to `COc1cc([C@@H]2c3cc4c(cc3C[C@H]3COC(=O)N32)OCCCO4)cc2c1OCO2`, the IC50 is 611 nM in assay [1], 965 nM in assay [2], 137 nM in assay [3] and 193 nM in assay [4].
As for `O=C1OC[C@@H]2Cc3cc4c(cc3[C@@H](c3ccc(OC(F)F)c(OC(F)F)c3)N12)OCCO4`, the IC50 was determined as 74.8 nM in assay [1], 265 nM in assay [2], 918 nM in assay [3] and 316 nM in assay [4].
For `COc1cc([C@@H]2c3cc4c(cc3C[C@H]3C(=O)NC(=O)N23)OCCO4)cc(F)c1OC`, the half-inhibitory concentration (IC50) was 26.3 nM in assay [1], 21.9 nM in assay [2], 20.1 nM in assay [3] and 29.5 nM in assay [4].
`COc1cc([C@@H]2c3cc4c(cc3C[C@H]3C(=O)N(C)C(=S)N23)OCO4)cc(OC)c1OC`: the 50% inhibitory concentration (IC50) in assay [1], in assay [2], in assay [3] and in assay [4] was over 5000 nM throughout.
For the compound `O=C1OC[C@@H]2Cc3cc4c(cc3[C@@H](c3ccncc3)N12)OCO4`, the IC50 in assay [1], in assay [2], in assay [3] and in assay [4] was over 5000 nM throughout.
As to `COc1cc([C@@H]2c3cc4c(cc3C[C@H]3C(=O)NC(=O)N23)OCCO4)cc2c1OCO2`, the 50% inhibitory concentration (IC50) in assay [1] was 74.8 nM; in assay [2], 36.2 nM; in assay [3], 46.9 nM; in assay [4], 91.7 nM.
For `CCN1C(=O)[C@@H]2Cc3cc4c(cc3[C@@H](c3cc(OC)c(OC)c(OC)c3)N2C1=O)OCO4`, the IC50 in assay [1], in assay [2], in assay [3] and in assay [4] was over 5000 nM each time.
On to `COc1cc([C@@H]2c3cc4c(cc3C[C@H]3C(=O)NC(=O)N23)OCO4)cc(OC)c1OC`, for which the IC50 was 49.1 nM in assay [1], 125 nM in assay [2], 64.3 nM in assay [3] and 44.9 nM in assay [4].

The values are drawn from ChEMBL document CHEMBL5236615, “Discovery of Novel N-Heterocyclic-Fused Deoxypodophyllotoxin Analogues as Tubulin Polymerization Inhibitors Targeting the Colchicine-Binding Site for Cancer Treatment” (J Med Chem, 2022).
